Results published in patent EP0435221A2, “New benzanthracene compound and a process for preparing the same” (HOECHST JAPAN LIMITED, priority 1989, dated 1991).
Converted amounts (≈) assume the structure as drawn.

Tested on: mouse leukemia L-1210 cells
Assay: inhibitory effect on the proliferation of mouse leukemia L-1210 cells
Type: cell-based
Settings: L1210; 50% inhibitory concentration; proliferation of mouse leukemia L-1210 cells (1 x 10⁶ cells/ml)
Method: Compound 683 of the present invention, as well as the structurally related X-14881 D, was tested for inhibitory effect on the proliferation of mouse leukemia L-1210 cells(1 x 10⁶ cells/ml). The 50% inhibitory concentration values thereof are as follows.

IC50 | SMILES
3 µg/mL (≈ 8.42 µM) | COc1cccc2c1C(O)C13C=CC4=C(C(=O)CC(C)C4O)C1(O3)C2O (centres unmarked) [Compound 683]
> 100 µg/mL | COc1cccc2c1C(O)C1(O)C=CC3=C(C(=O)CC(C)C3O)C1C2O (centres unmarked) [X-14881 D]
